Assay results from patent publication US8008490B2, “Polymorphic forms of aripiprazole and method” (Sandoz AG, priority 2005, dated 2011).

Experiments:
[1] = Moisture sorption isotherm (hygroscopicity); type: physicochemical; conditions: FIG. 10
[2] = Solution mediated transformation of aripiprazole forms (thermodynamic stability); type: physicochemical; conditions: at temperatures at and below about 60° C.

## O=C1CCc2ccc(OCCCCN3CCN(c4cccc(Cl)c4Cl)CC3)cc2N1 [Form X of aripiprazole, 7-[4-[4-(2,3-dichlorophenyl)-1-piperazinyl]butoxy]-3,4-dihydro-2(1H)-quinolinone]
[1]
  conversion into a hydrated form of aripiprazole: does not substantially convert into a hydrated form of aripiprazole
  hygroscopicity: low hygroscopicity
[2]
  thermodynamic stability (Gibbs free energy relative to other forms of aripiprazole): lowest Gibbs free energy
